US20200262864A1, “DEUTERATED FORMS OF AMINOSTEROLS AND METHODS OF USING THE SAME” (Enterin, Inc., priority 2019, published 2020)

Columns and labels:
[1] = Phase 2 trial of oral squalamine (ENT-01): pharmacokinetics; assay type: in vivo, human; settings: patients of Example 8
Protocol: PK data were collected on the 10 patients enrolled in Stage 1 and 10 patients enrolled in Stage 2 to determine the extent of systemic absorption. In Stage 1, PK data were obtained at each visit, pre-medication, at 1, 2, 4, 8 and 24 hours (Table 9). In Stage 2, PK was measured on days 1 and 6 of the randomization period pre-medication, at 1, 2, 4 and 8 hours (Table 10).
The mean Cmax, Tmax and T1/2 and AUC of the squalamine ion following squalamine (ENT-01) oral dosing for Stage 1 patients. The PK analyses are only approximate, as the lower limit of the validated concentration range was 10 ng/ml; most of the measured concentrations fell below that value. The mean Cmax, Tmax and T1/2 and AUC of the squalamine ion following squalamine (ENT-01) oral dosing for Stage 2 patients. The PK analyses are only approximate, as the lower limit of the validated concentration range was 0.5 ng/ml.

[2] = as the dilactate salt; cited from earlier work
[3] = single and repeat intravenous administration, dilactate salt, alone or in combination; cited from earlier work
[4] = test system: C. elegans model of PD; settings: cited from earlier work
[5] = test system: mouse models of PD; settings: several mouse models of PD; cited from earlier work
[6] = target: T1, Protein Tyrosine Phosphatase 1B (PTP1B), human truncated form (1-321) (Homo sapiens, UniProt P18031); assay: Inhibition of PTP1B, 10-dose IC50 mode, fluorescence readout of enzyme activity; assay type: biochemical; settings: for HILLSLOPE: 10-dose curve
T1 construct: The enzyme was the human truncated form (1-321), recombinantly produced in E. coli; host or cells: E. coli
T1 sequence (P18031 1-321): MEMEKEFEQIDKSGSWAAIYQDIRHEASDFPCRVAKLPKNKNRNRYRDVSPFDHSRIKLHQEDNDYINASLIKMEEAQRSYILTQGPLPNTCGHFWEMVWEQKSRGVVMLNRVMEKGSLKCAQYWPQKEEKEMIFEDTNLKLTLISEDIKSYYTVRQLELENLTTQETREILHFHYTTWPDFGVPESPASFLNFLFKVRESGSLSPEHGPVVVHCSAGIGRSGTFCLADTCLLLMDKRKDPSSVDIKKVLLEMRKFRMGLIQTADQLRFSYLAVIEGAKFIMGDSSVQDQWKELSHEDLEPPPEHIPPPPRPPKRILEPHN
Protocol: The enzyme was the human truncated form (1-321), recombinantly produced in E. coli. Fluorescence was measured to monitor enzyme activity.

[7] = Pharmacological activity in mice as weight loss agent; assay type: in vivo
From the text: Food was provided ad lib.

[8] = i.p. 10 mg/kg on days 0, 2, 4, 6, 8 and 10, N=3

Row | Compound | HILLSLOPE [6] | % Activity ([6]; Conc 1.00E−04 M) [%] | Slope (signal/min) ([6]; Conc 1.00E−04 M) | % Activity ([6]; Conc 1.11E−05 M) [%] | Slope (signal/min) ([6]; Conc 1.11E−05 M) | Slope (signal/min) ([6]; Conc 1.23E−06 M) | Slope (signal/min) ([6]; Conc 1.37E−07 M) | Slope (signal/min) ([6]; Conc 1.52E−08 M) | Slope (signal/min) ([6]; Conc 3.33E−05 M) | Slope (signal/min) ([6]; Conc 3.70E−06 M) | Slope (signal/min) ([6]; Conc 4.12E−07 M) | Slope (signal/min) ([6]; Conc 4.57E−08 M) | Slope (signal/min) ([6]; Conc 5.08E−09 M) | also measured
1 | CC(C)[C@@H](CC[C@@H](C)C1CCC2C3C(CC[C@@]21C)[C@@]1(C)CC[C@H](NCCCNCCCCN)C[C@@H]1C[C@H]3O)OS(=O)(=O)O (stereo partly drawn) [squalamine, 3 beta-N-1-(N-[3-(4-aminobutyl)]-1,3-diaminopropane)-7 alpha,24 zeta-dihydroxy-5 alpha-cholestane 24-sulfate] |  |  |  |  |  |  |  |  |  |  |  |  |  | systemic absorption following oral administration [1]: not significantly absorbed; water solubility [2]: highly water soluble; well tolerated dose [3]: at least 300 mg/m^2; muscle paralysis [4]: complete reversal; gastrointestinal dysmotility [5]: reverse gastrointestinal dysmotility
2 | [2H]C([2H])([2H])C([2H])(C(CC[C@@H](C)[C@H]1CCC2C3C(CC[C@@]21C)[C@@]1(C)CC[C@H](NCCCNCCCCNCCCN)C[C@@H]1C[C@H]3O)OS(=O)(=O)O)C([2H])([2H])[2H] (some centres unmarked) [Compound D7-1436] | −2.50 | −0.37 | −161 | −0.74 | −319 | 34760 | 40150 | 43819 | −362 | 8429 | 41755 | 43697 | 44655 | % Activity ([6]; Conc 1.23E−06 M): 80.63%; % Activity ([6]; Conc 1.37E−07 M): 93.14%; % Activity ([6]; Conc 1.52E−08 M): 101.65%; % Activity ([6]; Conc 3.33E−05 M): −0.84%; % Activity ([6]; Conc 3.70E−06 M): 19.55%; % Activity ([6]; Conc 4.12E−07 M): 96.86%; % Activity ([6]; Conc 4.57E−08 M): 101.36%; % Activity ([6]; Conc 5.08E−09 M): 103.59%; body weight reached ([7]; i.p. 10 mg/kg on days 0, 2, 4, 6, 8 and 10, by day 16, N=3): about 45 % of the starting weight; condition of the animals ([7]; i.p. 10 mg/kg on days 0, 2, 4, 6, 8 and 10, day 16): appeared moribund and were euthanized; potency as compared with MSI-1436 ([7]; weight loss, i.p. 10 mg/kg): increased potency
3 | CC(C)[C@@H](CC[C@@H](C)C1CCC2C3C(CC[C@@]21C)[C@@]1(C)CC[C@H](NCCCNCCCCNCCCN)C[C@@H]1C[C@H]3O)OS(=O)(=O)O (some centres unmarked) [MSI-1436, reference compound] | −2.19 | −0.16 | −68 | 0.68 | 292 | 37260 | 40137 | 44021 | −440 | 16431 | 39959 | 42717 | 43513 | nadir in weight [7, 8]: ~16 days; recovery to starting weight [7, 8]: 45 days
